Patent US20210196731A1, “COMPOSITIONS AND METHODS FOR TREATING OCULAR INFLAMMATION AND OCULAR SCARRING” (priority 2018, published 2021)

Legend:
Assay type in all cases: cell-based, human
SMAD2/3 = test: Western blot of HTCF protein lysate, SMAD2/3; conditions: ASA 500 or 1000 μg/ml, APHS 12 μg/ml, 48 hrs
Protocol: Cells were lysed in lysis buffer (PhosphoSafe Extraction Reagent, Novagen) containing a protease inhibitor cocktail (P2714, Sigma-Aldrich). Crude protein lysate was quantified using a Pierce BCA protein assay kit (ThermoFisher, Mississauga, ON) and 10 ug from each sample was resolved using a Novex WedgeWell 4-20% tris-glycine gel (Invitrogen). Using an iBlot Gel Transfer Device (IB1001, Invitrogen), the separated protein was transferred to a nitrocellulose membrane (1B301001, iBlot Transfer Stack, Invitrogen) which was then blocked with 5% (w/v) bovine serum albumin (Sigma-Aldrich) in Tris buffered saline (TBST) for 1 hour at room temperature. The membranes were incubated overnight at 4° C. with primary antibody diluted in TBST containing 5% BSA (w/vol). […] Visualization was accomplished by applying WesternBright Quantum chemiluminescent reagent (Advansta, Inc.), with GAPDH used as a protein loading control. Imaging and relative densiometric quantification was accomplished using a ChemiDoc MP System (Bio-Rad Laboratories, Inc.) connected to Image Lab (Version 6, Bio-Rad Laboratories, Inc.).

HTCFs [1] = test: Cytotoxicity assay, in situ fluorescence-based LIVE/DEAD (fluorescein diacetate/propidium iodide)
Protocol: To assess the relative cellular viability between different experimental conditions, an in situ fluorescence-based LIVE/DEAD assay was used. This is a well reported method for estimating the cytotoxicity of an intervention. In brief, two florescent dyes, fluorescein diacetate and propidium iodide, are added to the culture media surrounding the collagen constructs. Fluorescein diacetate is converted into a […] fluorescent molecule by esterases within living cells. Propidium iodide (red) cannot pass through a viable cell's membrane, however it can penetrate disordered areas of dead cell membranes and then intercalates with the nuclear DNA. After a 5 min incubation with the staining solution, collagen constructs were washed with PBS and immediately imaged on a laser-scanning confocal microscope (A1R HD Nikon Instruments Inc., Tokyo, Japan). Ten random frames were taken with the 20× objective per tissue section, with three tissue sections imaged per patient cell line and treatment group. The laser intensity settings were kept consistent between samples to facilitate consistent comparison between replicates.
Using ImageJ, blue signals were counted within every frame and counted as living cells. The same was done for red signals, and these were counted as dead cells. The ratio of living (blue) to total (blue+red) cells was recorded.

HTCFs [2] = test: Collagen Contraction Assay V (AHGF induced, APHS and gentamicin vs mitomycin C); conditions: APHS 12 and 24 μg/ml
Protocol: HTCFs were seeded at a density of 2.5×10^5 cells/mL within an extracellular matrix (ECM) mixture containing 400 ul of rat tail-derived type I collagen (1.8 mg/ml), 80 ul of neutralizing solution (equal parts Waymouth's media (Gibco, CAT. NO: 11220035) and 0.275M NaOH) and 20 ul of HTCF conditioned media (concentrated to 25× to obtain a 1× final concentration within the 500 ul matrix solution). The cell-collagen solution was pipetted gently to ensure homogenous distribution of HTCFs while avoiding the production of air bubbles, then 500 ul were pipetted into each well of a 24-well tray. Collagen constructs were allowed to polymerize at 37 C for 45 minutes before adding low serum culture media containing DMEM, 2% Fetal Bovine Serum (FBS), 1% penicillin/streptomycin (P/S).
Tension was allowed to build up within the tethered matrix at 37 C and 5% CO2 for 72 hours before a sterile spatula was used to detach each collagen construct from the edges of the culture well. Plates were then immediately scanned on a flat bed laser scanner to record baseline area, and then measured periodically for a duration of 4 days. The surface area of each collagen construct was measured using ImageJ (NIH) and standardized against the baseline surface area measurement to express changes in area as a percentage of original surface area. […]

HTCFs [3] = test: Collagen Contraction Assay IV (AHGF induced, ASA and gentamicin vs mitomycin C); conditions: ASA 1500 μg/ml and/or gentamicin 750 μg/ml; comparator mitomycin C 0.2 mg/ml for 4 minutes
Protocol: Tension was allowed to build up within the tethered matrix at 37 C and 5% CO2 for 72 hours before a sterile spatula was used to detach each collagen construct from the edges of the culture well. Plates were then immediately scanned on a flat bed laser scanner and then periodically for a total of 4 days. The surface area of each collagen construct was measured using ImageJ (NIH) and standardized against the baseline surface area measurement to express changes in area as a percentage of original surface area.
In this modification of the assay, AHGFs are added to all culture media the collagen constructs are exposed to—from casting of the collagen constructs to the conclusion of contraction. The experimental treatment solutions—all also containing AHGFs—were added 30 minutes prior to detaching the collagen constructs from the culture wells and remained until experimental conclusion. […] DMEM w/2% FBS was added for the remainder of the experiment).

MMP9 = test: Western blot of HTCF protein lysate, MMP9; conditions: ASA 100, 400, 1600 μg/ml, 48 hrs
Protocol: Cells were lysed in lysis buffer (PhosphoSafe Extraction Reagent, Novagen) containing a protease inhibitor cocktail (P2714, Sigma-Aldrich). Crude protein lysate was quantified using a Pierce BCA protein assay kit (ThermoFisher, Mississauga, ON) and 10 ug from each sample was resolved using a Novex WedgeWell 4-20% tris-glycine gel (Invitrogen). Using an iBlot Gel Transfer Device (IB1001, Invitrogen), the separated protein was transferred to a nitrocellulose membrane (1B301001, iBlot Transfer Stack, Invitrogen) which was then blocked with 5% (w/v) bovine serum albumin (Sigma-Aldrich) in Tris buffered saline (TBST) for 1 hour at room temperature. The membranes were incubated overnight at 4° C. with primary antibody diluted in TBST containing 5% BSA (w/vol). Primary antibodies used were as follows: collagen 1 (ab138492, Abcam), αSMA (ab5694, Abcam), MMP9 (ab38898, Abcam), PPARγ (sc-7273, SantaCruz Biotechnology), SMAD2/3 (ab63672, Abcam), pSMAD2/3 (ab63399, Abcam) and GAPDH (sc-47724, Santa Cruz Biotechnology, Inc.). […] Imaging and relative densiometric quantification was accomplished using a ChemiDoc MP System (Bio-Rad Laboratories, Inc.) connected to Image Lab (Version 6, Bio-Rad Laboratories, Inc.).

What does the source list for `CCCCC#CCSc1ccccc1OC(C)=O` [APHS, o-(acetoxyphenyl)hept-2-ynyl sulfide]?
AHGF-induced expression of SMAD2/3 (SMAD2/3): significantly reduced; relative proportion of living to total cells (HTCFs [1]; AHGFs, APHS 24 μg/ml, alone or with gentamicin 750 μg/ml): unchanged relative to the AHGFs control group; AHGF-induced HTCF-mediated collagen contraction (HTCFs [2]): significantly inhibited AHGF-induced HTCF-mediated collagen contraction

What does the source list for `CC(=O)Oc1ccccc1C(=O)O` [ASA, acetylsalicylic acid]?
AHGF induced, HTCF-mediated collagen contraction (HTCFs [3]): significantly negate the effects of the AHGFs on HTCF-mediated collagen contraction, albeit significantly less than the current ophthalmic clinical gold standard; AHGF-induced expression of SMAD2/3 (SMAD2/3): significantly reduced; AHGF-induced expression of MMP9 (MMP9): significantly impaired the AHGF-induced expression; relative proportion of living to total cells (HTCFs [1]; AHGFs, ASA 1500 μg/ml, with or without gentamicin 750 μg/ml, mitomycin C 0.2 mg/ml for 1, 2 or 4 minutes): unchanged relative to vehicle control; relative proportion of living to total cells (HTCFs [1]; Collagen Contraction Assay III conditions, ASA 1000 or 1500 μg/ml, with or without gentamicin, four days): unchanged relative to vehicle control
